Measurements as given in ChEMBL document CHEMBL3232931 (J Med Chem, 2014).
The source made the active and inactive calls. The rule behind the calls is not given here.

Tests used:
[1] = system: SARS-CoV; assay: Antiviral activity against SARS coronavirus infected in african green monkey Vero E6 cells assessed as cell viability after 48 hrs by Cell Titer-Glo luminescent assay; assay type: functional, organism-based; details: Severe acute respiratory syndrome-related coronavirus
[2] = (§1) Inhibition of SARS coronavirus papain-like protease (amino acids 1541 to 1855) expressed in Escherichia coli BL21 (DE3) cells assessed as decrease in AMC release using Z-RLRGG-AMC as substrate by multimode plate reader analysis; design: species or system Severe acute respiratory syndrome-related coronavirus
[3] = system: HEK293; assay: Cytotoxicity against human HEK293 cells assessed as cell viability after 48 hrs by Cell Titer-Glo luminescent assay; assay type: cell-based; details: hek293, 48 h
[4] = system: BL21-DE3; assay: Inhibition of SARS coronavirus papain-like protease (amino acids 1541 to 1855) expressed in Escherichia coli BL21 (DE3) cells assessed as decrease in AMC release using Z-RLRGG-AMC as substrate by serum shift assay based multimode plate reader analysis in presence of 5 to 20% human serum albumin; details: Severe acute respiratory syndrome-related coronavirus
[5] = Cytotoxicity against african green monkey Vero E6 cells assessed as cell viability after 48 hrs by Cell Titer-Glo luminescent assay; assay type: cell-based; details: chlorocebus sabaeus
[6] = Therapeutic index, ratio of CC50 for african green monkey Vero E6 cells to EC50 for SARS coronavirus infected in african green monkey Vero E6 cells; assay type: cell-based; details: read-out: Ratio CC50/EC50
[7] = system: BL21-DE3; assay: as §1; details: Severe acute respiratory syndrome-related coronavirus
[8] = molecular target: Replicase polyprotein 1a (Human coronavirus NL63) (UniProt P0C6U6); assay: Inhibition of human coronavirus NL63 PLP2 (amino acids 1565 to 1894) expressed in Escherichia coli BL21 (DE3) cells assessed as reduction of AMC release using Z-RLRGG-AMC as substrate at 100 uM by multimode plate reader analysis
Target sequence in this assay (P0C6U6 whole entry, the tested form may be a part): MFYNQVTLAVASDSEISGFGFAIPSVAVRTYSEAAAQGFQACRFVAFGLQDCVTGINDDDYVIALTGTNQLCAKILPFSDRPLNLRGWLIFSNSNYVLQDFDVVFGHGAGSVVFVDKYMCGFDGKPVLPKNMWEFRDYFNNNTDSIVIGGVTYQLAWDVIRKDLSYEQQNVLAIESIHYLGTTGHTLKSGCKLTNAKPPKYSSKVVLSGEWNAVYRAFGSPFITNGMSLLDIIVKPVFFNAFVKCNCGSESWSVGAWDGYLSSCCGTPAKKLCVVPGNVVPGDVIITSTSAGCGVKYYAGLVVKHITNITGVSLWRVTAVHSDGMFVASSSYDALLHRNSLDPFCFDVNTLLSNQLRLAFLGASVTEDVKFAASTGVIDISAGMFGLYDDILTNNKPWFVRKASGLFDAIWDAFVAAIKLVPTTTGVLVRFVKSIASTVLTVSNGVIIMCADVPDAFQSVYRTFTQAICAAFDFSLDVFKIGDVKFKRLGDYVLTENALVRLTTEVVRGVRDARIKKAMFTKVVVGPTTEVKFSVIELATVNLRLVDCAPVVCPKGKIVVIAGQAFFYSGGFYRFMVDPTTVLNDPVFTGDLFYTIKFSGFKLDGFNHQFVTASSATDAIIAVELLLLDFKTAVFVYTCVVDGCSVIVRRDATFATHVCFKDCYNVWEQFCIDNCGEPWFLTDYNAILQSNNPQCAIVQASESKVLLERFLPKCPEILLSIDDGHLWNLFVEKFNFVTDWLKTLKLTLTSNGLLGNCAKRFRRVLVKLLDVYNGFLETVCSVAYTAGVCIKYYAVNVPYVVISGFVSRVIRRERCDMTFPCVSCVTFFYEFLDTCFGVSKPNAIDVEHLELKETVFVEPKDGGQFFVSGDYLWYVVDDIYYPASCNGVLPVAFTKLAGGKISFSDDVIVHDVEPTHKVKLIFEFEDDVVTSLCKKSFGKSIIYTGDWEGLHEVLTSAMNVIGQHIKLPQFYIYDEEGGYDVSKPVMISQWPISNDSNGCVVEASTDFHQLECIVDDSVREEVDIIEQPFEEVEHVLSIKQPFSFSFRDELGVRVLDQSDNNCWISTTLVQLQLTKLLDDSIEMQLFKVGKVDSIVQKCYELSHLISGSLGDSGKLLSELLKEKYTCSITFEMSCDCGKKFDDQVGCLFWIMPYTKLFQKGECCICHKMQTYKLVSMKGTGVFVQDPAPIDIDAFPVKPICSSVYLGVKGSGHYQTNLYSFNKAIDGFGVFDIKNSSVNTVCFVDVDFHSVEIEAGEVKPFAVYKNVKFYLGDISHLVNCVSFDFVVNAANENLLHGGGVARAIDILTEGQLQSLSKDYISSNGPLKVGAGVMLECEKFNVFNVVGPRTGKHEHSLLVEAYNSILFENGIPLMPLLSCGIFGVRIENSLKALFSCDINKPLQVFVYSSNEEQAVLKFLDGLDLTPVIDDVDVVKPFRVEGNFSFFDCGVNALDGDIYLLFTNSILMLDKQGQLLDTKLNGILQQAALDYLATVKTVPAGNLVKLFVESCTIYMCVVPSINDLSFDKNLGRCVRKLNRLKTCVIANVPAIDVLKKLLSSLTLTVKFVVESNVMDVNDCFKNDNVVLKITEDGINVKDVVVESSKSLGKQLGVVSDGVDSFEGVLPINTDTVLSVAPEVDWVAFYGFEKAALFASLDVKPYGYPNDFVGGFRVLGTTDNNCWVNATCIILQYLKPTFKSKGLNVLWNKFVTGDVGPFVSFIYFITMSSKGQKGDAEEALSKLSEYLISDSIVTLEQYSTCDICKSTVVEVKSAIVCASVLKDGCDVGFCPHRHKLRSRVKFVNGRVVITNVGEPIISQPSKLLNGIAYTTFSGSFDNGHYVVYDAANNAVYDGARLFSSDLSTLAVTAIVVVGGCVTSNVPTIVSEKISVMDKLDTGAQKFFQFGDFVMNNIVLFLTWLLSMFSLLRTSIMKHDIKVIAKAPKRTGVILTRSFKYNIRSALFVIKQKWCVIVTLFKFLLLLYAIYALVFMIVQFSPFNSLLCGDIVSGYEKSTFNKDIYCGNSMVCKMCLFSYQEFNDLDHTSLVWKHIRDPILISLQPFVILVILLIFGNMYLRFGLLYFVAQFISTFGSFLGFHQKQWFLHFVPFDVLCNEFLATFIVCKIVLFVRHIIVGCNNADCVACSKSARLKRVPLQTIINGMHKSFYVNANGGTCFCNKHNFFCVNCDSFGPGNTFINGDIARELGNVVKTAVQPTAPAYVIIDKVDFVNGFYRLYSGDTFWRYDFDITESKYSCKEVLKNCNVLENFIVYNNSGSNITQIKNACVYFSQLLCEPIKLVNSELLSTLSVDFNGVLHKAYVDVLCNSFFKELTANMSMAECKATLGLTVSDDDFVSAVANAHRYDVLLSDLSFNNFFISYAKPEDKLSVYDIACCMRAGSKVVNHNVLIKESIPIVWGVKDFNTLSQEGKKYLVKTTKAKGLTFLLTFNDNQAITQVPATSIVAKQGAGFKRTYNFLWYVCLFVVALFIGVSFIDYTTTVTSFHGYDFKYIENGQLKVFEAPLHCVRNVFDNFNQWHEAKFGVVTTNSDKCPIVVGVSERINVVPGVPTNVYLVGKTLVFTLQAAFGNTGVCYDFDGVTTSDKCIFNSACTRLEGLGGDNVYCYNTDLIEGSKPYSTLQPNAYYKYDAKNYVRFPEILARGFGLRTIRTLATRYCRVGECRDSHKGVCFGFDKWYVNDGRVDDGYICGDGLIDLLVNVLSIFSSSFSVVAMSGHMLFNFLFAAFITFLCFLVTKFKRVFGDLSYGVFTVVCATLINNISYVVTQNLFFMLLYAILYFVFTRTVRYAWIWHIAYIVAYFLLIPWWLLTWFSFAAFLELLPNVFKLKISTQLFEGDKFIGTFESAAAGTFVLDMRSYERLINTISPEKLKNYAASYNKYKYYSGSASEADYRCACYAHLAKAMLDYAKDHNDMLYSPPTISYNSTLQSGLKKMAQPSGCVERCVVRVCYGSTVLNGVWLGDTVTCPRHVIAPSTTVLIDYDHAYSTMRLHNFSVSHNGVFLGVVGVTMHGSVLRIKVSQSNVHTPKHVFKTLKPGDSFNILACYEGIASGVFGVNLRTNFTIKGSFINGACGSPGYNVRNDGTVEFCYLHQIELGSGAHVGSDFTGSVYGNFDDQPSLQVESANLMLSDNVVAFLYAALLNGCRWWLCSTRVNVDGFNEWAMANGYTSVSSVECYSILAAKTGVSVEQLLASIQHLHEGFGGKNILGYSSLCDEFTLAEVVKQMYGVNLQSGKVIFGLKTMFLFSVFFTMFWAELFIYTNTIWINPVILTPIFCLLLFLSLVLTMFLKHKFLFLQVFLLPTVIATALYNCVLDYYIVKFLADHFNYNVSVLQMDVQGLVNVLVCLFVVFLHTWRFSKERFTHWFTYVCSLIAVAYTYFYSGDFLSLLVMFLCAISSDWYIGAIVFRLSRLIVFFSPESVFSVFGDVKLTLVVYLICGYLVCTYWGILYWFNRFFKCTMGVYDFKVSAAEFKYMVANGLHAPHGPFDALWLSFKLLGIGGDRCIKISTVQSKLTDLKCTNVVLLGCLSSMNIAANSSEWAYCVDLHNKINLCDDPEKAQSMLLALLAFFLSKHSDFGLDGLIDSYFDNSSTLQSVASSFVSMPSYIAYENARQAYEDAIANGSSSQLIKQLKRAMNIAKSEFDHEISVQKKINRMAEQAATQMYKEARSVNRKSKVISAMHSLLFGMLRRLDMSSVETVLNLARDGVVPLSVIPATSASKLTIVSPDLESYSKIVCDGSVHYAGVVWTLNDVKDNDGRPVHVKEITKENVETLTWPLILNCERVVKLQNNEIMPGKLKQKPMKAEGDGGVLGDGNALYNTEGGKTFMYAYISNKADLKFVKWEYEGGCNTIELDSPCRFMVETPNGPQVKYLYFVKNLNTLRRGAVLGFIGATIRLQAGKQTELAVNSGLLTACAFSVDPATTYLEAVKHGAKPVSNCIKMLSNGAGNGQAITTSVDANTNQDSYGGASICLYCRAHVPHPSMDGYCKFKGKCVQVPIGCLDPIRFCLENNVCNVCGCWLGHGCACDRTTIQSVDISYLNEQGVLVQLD

[9] = molecular target: Replicase polyprotein 1a (Human coronavirus NL63) (UniProt P0C6U6); assay: (§2) Inhibition of human coronavirus NL63 PLP2 (amino acids 1565 to 1894) expressed in Escherichia coli BL21 (DE3) cells assessed as reduction of AMC release using Z-RLRGG-AMC as substrate by multimode plate reader analysis
[10] = molecular target: Replicase polyprotein 1a (Human coronavirus NL63, UniProt P0C6U6); assay: as §2
[11] = Metabolic stability in mouse liver microsomes assessed as parent compound remaining at 1 uM after 15 mins; assay type: ADME; details: read-out: Stability
[12] = system: Liver; assay: Half life in mouse liver microsomes at 1 uM; assay type: ADME

SMILES: C[C@H](c1cccc2ccccc12)N1CCC(C(=O)NCc2ccccc2)CC1
- EC50 [1]: > 50 µM
- IC50 [2]: 2.2 µM

SMILES: C[C@H](c1cccc2ccccc12)N1CCC(C(=O)N[C@H](C)c2ccccc2)CC1
- IC50 [2]: 13.5 µM

SMILES: O=C(NCc1cccc(F)c1)C1CCN(C2CCCc3ccc4ccccc4c32)CC1 (stereo not drawn)
- IC50 [2]: 5.1 µM

SMILES: CC(c1cccc2cnccc12)N1CCC(C(=O)NCc2cccc(F)c2)CC1 (racemic)
- EC50 [1]: > 50 µM
- IC50 [2]: 6.8 µM

SMILES: COCC(c1cccc2ccccc12)N1CCC(C(=O)NCc2ccc3c(c2)OCO3)CC1 (racemic)
- IC50 [2]: > 100 µM

SMILES: COC[C@@H](NC(=O)C1CCN([C@H](C)c2cccc3ccccc23)CC1)c1ccccc1
- EC50 [1]: 11.7 µM
- CC50 [3]: > 100 µM
- IC50 [2]: 1.9 µM
- inhibition [4]: Active
- CC50 [5]: > 100 µM
- selectivity ratio [6]: > 8.5

SMILES: CC(=O)Nc1ccc(CNC(=O)C2CCN([C@H](C)c3cccc4ccccc34)CC2)cc1
- IC50 [2]: 5.7 µM
- Imax [7]: 94%
- inhibition [8]: > 30%
- Imax [9]: 42%
- IC50 [10]: 37 µM

SMILES: CCC(c1cccc2ccccc12)N1CCC(C(=O)NCc2ccc3c(c2)OCO3)CC1 (racemic)
- IC50 [2]: 17.2 µM

SMILES: CNC(=O)c1ccc(CNC(=O)C2CCN([C@H](C)c3cccc4ccccc34)CC2)cc1
- IC50 [2]: 0.6 µM

SMILES: C[C@H](c1cccc2ccccc12)N1CCC(C(=O)NCCc2ccc(Cl)cc2)CC1
- IC50 [2]: 1.6 µM

SMILES: COc1cc(CNC(=O)C2CCN([C@H](C)c3cccc4ccccc34)CC2)ccn1
- remaining at 0.25 h, 1 µM [11]: 30%
- EC50 [1]: 9.5 µM
- CC50 [3]: > 100 µM
- IC50 [2]: 0.35 µM
- Imax [7]: 100%
- inhibition [4]: Active
- inhibition [8]: > 30%
- Imax [9]: 67%
- IC50 [10]: 59 µM
- CC50 [5]: > 100 µM
- t1/2 [12]: 8 min

SMILES: O=C(NCc1ccc2c(c1)OCO2)C1CCN(C(CO)c2cccc3ccccc23)CC1 (racemic)
- IC50 [2]: 32 µM

SMILES: C[C@H](NC(=O)C1CCN([C@H](C)c2cccc3ccccc23)CC1)c1ccccc1
- IC50 [2]: 12.7 µM

SMILES: C[C@H](c1cccc2ccccc12)N1CCC(C(=O)NCc2ccc(F)c(F)c2)CC1
- IC50 [2]: 29.2 µM
- Imax [7]: 78%
- inhibition [8]: > 30%
- Imax [9]: 48%
- IC50 [10]: 44 µM

SMILES: CC(=O)NCc1cccc(CNC(=O)C2CCN([C@H](C)c3cccc4ccccc34)CC2)c1
- IC50 [2]: 20.4 µM

SMILES: C[C@H](c1cccc2ccccc12)N1CCC(C(=O)NCc2cccc(Cl)c2)CC1
- IC50 [2]: 27.2 µM

SMILES: CCc1ccc(CNC(=O)C2CCN([C@H](C)c3cccc4ccccc34)CC2)cc1
- IC50 [2]: 0.47 µM

SMILES: CNC(=O)c1cccc(CNC(=O)C2CCN([C@H](C)c3cccc4ccccc34)CC2)c1
- IC50 [2]: 0.63 µM

SMILES: CC(c1cccc2cccnc12)N1CCC(C(=O)NCc2cccc(F)c2)CC1 (racemic)
- EC50 [1]: > 50 µM
- IC50 [2]: 7 µM

SMILES: C[C@H](c1cccc2ccccc12)N1CCC(C(=O)NCc2ccncc2)CC1
- IC50 [2]: 18.3 µM

SMILES: C[C@H](c1cccc2ccccc12)N1CCC(C(=O)NCCc2cccc(F)c2)CC1
- IC50 [2]: 1.9 µM

SMILES: CC(c1nccc2ccccc12)N1CCC(C(=O)NCc2cccc(F)c2)CC1 (racemic)
- IC50 [2]: 30.8 µM

SMILES: C[C@H](c1cccc2ccccc12)N1CCC(C(=O)NCc2cccnc2)CC1
- IC50 [2]: 26.3 µM

SMILES: CC(c1cccc2ncccc12)N1CCC(C(=O)NCc2cccc(F)c2)CC1 (racemic)
- IC50 [2]: 4.5 µM

SMILES: COC[C@H](NC(=O)C1CCN([C@H](C)c2cccc3ccccc23)CC1)c1ccccc1
- IC50 [2]: 18 µM

SMILES: C[C@H](c1cccc2ccccc12)N1CCC(C(=O)NCc2ccc(Cl)cc2)CC1
- IC50 [2]: 0.58 µM

SMILES: O=C(NCc1ccc2c(c1)OCO2)C1CCN(C(Cc2ccccc2)c2cccc3ccccc23)CC1 (racemic)
- IC50 [2]: > 100 µM
